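Values below derive from 48-hour exposures of cells grown in 96-well plates, with endpoints linearly interpolated between the two concentrations bracketing the appropriate inhibition level. GI50 marks 50% less growth.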 The source made the active and inactive calls. Rule as the data show it: active = GI50 up to about 1.1 µM and inactive = higher.
Columns and labels:
Assay in all cases: inhibition of tumour cell growth, NCI panel, 48 h
786-0 = test system: 786-0
CCRF-CEM = test system: CCRF-CEM
HCT-116 = test system: HCT-116
HT-29 = test system: HT-29
MOLT-4 = test system: MOLT-4
OVCAR-4 = test system: OVCAR-4
SF-539 = test system: SF-539
SNB-19 = test system: SNB-19
SNB-75 = test system: SNB-75
UACC-257 = test system: UACC-257
UACC-62 = test system: UACC-62
UO-31 = test system: UO-31
CAKI-1 = test system: CAKI-1
COLO 205 = test system: COLO 205
HCC 2998 = test system: HCC 2998
HOP-92 = test system: HOP-92
IGROV-1 = test system: IGROV-1
NCI/ADR-RES = test system: NCI/ADR-RES
PC-3 = test system: PC-3

Measured: GI50

COC1=NCc2ccccc2-c2ccccc21
inactive: 786-0 > 100 µM | CCRF-CEM > 100 µM | HCT-116 > 100 µM | HT-29 > 100 µM | MOLT-4 > 100 µM | OVCAR-4 > 100 µM | SF-539 > 100 µM | SNB-19 > 100 µM | SNB-75 > 100 µM | UACC-257 > 100 µM | UACC-62 > 100 µM | UO-31 20.2 µM

COc1ccc2ccccc2c1CN1CCOCCOCCN(Cc2c(OC)ccc3ccccc23)CCOCCOCC1
inactive: 786-0 31.8 µM | CAKI-1 > 100 µM | CCRF-CEM > 39.1 µM | COLO 205 > 90.4 µM | HCC 2998 14.8 µM | HCT-116 25.1 µM | HOP-92 > 27.9 µM | HT-29 > 20.3 µM | IGROV-1 > 100 µM | MOLT-4 > 49.8 µM | OVCAR-4 > 100 µM | SF-539 > 45.3 µM | SNB-19 > 100 µM | SNB-75 > 52.5 µM | UACC-257 45.2 µM | UACC-62 > 85.5 µM | UO-31 > 100 µM

Cc1cc2c(cn1)C(=O)OCC2
inactive: 786-0 > 100 µM | CCRF-CEM > 100 µM | HCC 2998 > 100 µM | HCT-116 > 100 µM | HT-29 > 100 µM | IGROV-1 > 100 µM | MOLT-4 > 100 µM | OVCAR-4 > 100 µM | SF-539 > 100 µM | SNB-19 > 100 µM | SNB-75 > 100 µM | UACC-257 > 100 µM | UACC-62 > 100 µM | UO-31 > 100 µM

CCOP(=S)(OCC)Oc1ccc2c(c1)OC(=O)C1(Cl)C2(C)C2(Cl)C(=O)Oc3cc(OP(=S)(OCC)OCC)ccc3C12C (stereo unspecified)
inactive: 786-0 21.1 µM | CAKI-1 19.8 µM | CCRF-CEM 16.9 µM | COLO 205 19.1 µM | HCC 2998 17.7 µM | HCT-116 12.3 µM | HT-29 15.5 µM | IGROV-1 17.3 µM | MOLT-4 20.9 µM | OVCAR-4 10.7 µM | SF-539 11.1 µM | SNB-19 4.8 µM | SNB-75 16.1 µM | UACC-257 17.7 µM | UACC-62 12.6 µM | UO-31 17.9 µM

Oc1ccc2ccccc2c1/N=N/c1ccsc1
inactive: 786-0 > 100 µM | CAKI-1 > 100 µM | CCRF-CEM 83.8 µM | COLO 205 > 100 µM | HCC 2998 > 100 µM | HCT-116 42.7 µM | HOP-92 > 100 µM | HT-29 66.8 µM | IGROV-1 > 100 µM | MOLT-4 > 100 µM | OVCAR-4 > 100 µM | SF-539 > 100 µM | SNB-19 > 100 µM | SNB-75 > 100 µM | UACC-257 > 100 µM | UACC-62 > 100 µM | UO-31 > 100 µM

CC(=O)Oc1cc2c(n(C)c1=O)-c1ccccc1C2
inactive: 786-0 > 100 µM | CAKI-1 29.1 µM | CCRF-CEM 34.2 µM | COLO 205 39.4 µM | HCC 2998 85.9 µM | HCT-116 34.7 µM | HOP-92 46.7 µM | HT-29 78.2 µM | IGROV-1 36.2 µM | MOLT-4 66.8 µM | NCI/ADR-RES 23.2 µM | OVCAR-4 32.5 µM | PC-3 40.8 µM | SNB-19 > 100 µM | SNB-75 > 100 µM | UACC-257 > 100 µM | UACC-62 75.3 µM | UO-31 41 µM

CC(C)N(C(=O)C12C3C4C5(C(=O)O)C(C1C35I)C42C(=O)O)C(C)C (stereo unspecified)
inactive: 786-0 > 100 µM | CCRF-CEM > 100 µM | COLO 205 > 100 µM | HCC 2998 > 100 µM | HCT-116 > 100 µM | HOP-92 > 100 µM | HT-29 > 100 µM | IGROV-1 > 100 µM | MOLT-4 > 100 µM | OVCAR-4 > 100 µM | SF-539 > 100 µM | SNB-19 > 100 µM | SNB-75 29.1 µM | UACC-257 > 100 µM | UACC-62 > 100 µM | UO-31 > 100 µM

COC(=O)[C@H]1C=C[C@@H](C)n2c(=O)c3cc4ccccc4cc3c(=O)n21
inactive: 786-0 > 100 µM | CAKI-1 > 100 µM | CCRF-CEM > 100 µM | COLO 205 > 100 µM | HCC 2998 > 100 µM | HCT-116 > 100 µM | HOP-92 > 100 µM | IGROV-1 > 100 µM | MOLT-4 > 100 µM | SF-539 > 100 µM | SNB-19 > 100 µM | SNB-75 43.6 µM | UACC-257 > 100 µM | UO-31 > 100 µM

COc1ccc(CC(O)CN2CCOCC2)cc1 (stereo unspecified)
inactive: 786-0 > 100 µM | CAKI-1 > 100 µM | CCRF-CEM > 100 µM | HCT-116 > 100 µM | HOP-92 > 100 µM | HT-29 > 100 µM | IGROV-1 > 100 µM | MOLT-4 > 100 µM | NCI/ADR-RES > 100 µM | OVCAR-4 > 100 µM | PC-3 > 100 µM | SNB-19 > 100 µM | UACC-257 > 100 µM | UACC-62 > 100 µM | UO-31 > 100 µM

COC(=O)C1=C(c2cc(OC)c(OC)c(OC)c2)OC(c2ccc(OC)c(OC)c2)C1 (stereo unspecified)
inactive: 786-0 73.3 µM | CAKI-1 > 100 µM | CCRF-CEM 60.1 µM | COLO 205 19.1 µM | HCC 2998 54.7 µM | HCT-116 43.8 µM | HOP-92 42.5 µM | HT-29 38.7 µM | IGROV-1 61.1 µM | MOLT-4 18.9 µM | OVCAR-4 47.2 µM | SF-539 42.9 µM | SNB-75 66.1 µM | UACC-257 40.6 µM | UACC-62 71.4 µM | UO-31 38.9 µM

CC1(C2CCC3(C)OC3C2)CO1 (stereo unspecified)
inactive: 786-0 > 100 µM | CAKI-1 > 100 µM | CCRF-CEM > 100 µM | COLO 205 > 100 µM | HCC 2998 > 100 µM | HCT-116 > 100 µM | HOP-92 > 100 µM | HT-29 > 100 µM | IGROV-1 > 100 µM | MOLT-4 > 100 µM | OVCAR-4 > 100 µM | SF-539 > 100 µM | SNB-19 > 100 µM | SNB-75 > 100 µM | UACC-257 > 100 µM | UACC-62 > 100 µM | UO-31 > 100 µM

CN(C)NC(=O)NC12CC3CC(CC(C3)C1)C2
inactive: 786-0 > 100 µM | CAKI-1 > 100 µM | CCRF-CEM > 100 µM | COLO 205 > 100 µM | HCT-116 > 100 µM | HOP-92 > 100 µM | HT-29 > 100 µM | IGROV-1 > 100 µM | MOLT-4 > 100 µM | OVCAR-4 > 100 µM | SF-539 > 100 µM | SNB-19 > 100 µM | SNB-75 > 100 µM | UACC-257 > 100 µM | UACC-62 > 100 µM | UO-31 > 100 µM

COc1ccc2c(c1)[n+]([O-])c(/C(C)=N/NC(=O)CC#N)c[n+]2[O-]
inactive: 786-0 > 100 µM | CAKI-1 35.2 µM | CCRF-CEM > 100 µM | COLO 205 83.4 µM | HCC 2998 > 100 µM | HCT-116 83.9 µM | HOP-92 > 100 µM | HT-29 > 100 µM | IGROV-1 > 100 µM | MOLT-4 > 100 µM | OVCAR-4 > 100 µM | SF-539 > 100 µM | SNB-19 > 100 µM | SNB-75 > 100 µM | UACC-257 > 100 µM | UACC-62 > 100 µM | UO-31 > 100 µM

O=c1c(C(c2ccc([N+](=O)[O-])cc2)c2c(O)oc3ccccc3c2=O)c(O)oc2ccccc12
inactive: 786-0 > 100 µM | CAKI-1 > 100 µM | CCRF-CEM > 100 µM | COLO 205 > 100 µM | HCT-116 > 100 µM | HOP-92 > 100 µM | HT-29 > 100 µM | IGROV-1 > 100 µM | MOLT-4 > 100 µM | NCI/ADR-RES > 100 µM | OVCAR-4 > 100 µM | PC-3 > 100 µM | SNB-19 > 100 µM | SNB-75 86.5 µM | UACC-257 > 100 µM | UACC-62 > 100 µM | UO-31 > 100 µM

CC1(C(=O)O)CCCC1C(=O)O (stereo unspecified)
inactive: 786-0 > 100 µM | CAKI-1 > 100 µM | CCRF-CEM > 100 µM | HCT-116 > 100 µM | HOP-92 > 100 µM | HT-29 > 100 µM | IGROV-1 > 100 µM | MOLT-4 > 100 µM | NCI/ADR-RES > 100 µM | OVCAR-4 > 100 µM | PC-3 > 100 µM | SNB-19 > 100 µM | UACC-257 > 100 µM | UACC-62 > 100 µM | UO-31 > 100 µM

O=C(n1c2ccccc2c2nnc(S)nc21)C(F)(F)F
inactive: 786-0 > 100 µM | CAKI-1 > 100 µM | CCRF-CEM > 100 µM | COLO 205 > 100 µM | HCC 2998 > 100 µM | HCT-116 > 100 µM | HOP-92 > 100 µM | HT-29 > 100 µM | IGROV-1 > 100 µM | MOLT-4 > 100 µM | OVCAR-4 > 100 µM | SF-539 > 100 µM | SNB-19 > 100 µM | SNB-75 > 100 µM | UACC-62 > 100 µM | UO-31 > 100 µM

COc1cc2c(cc1OC)C1Cc3ccc(OC)c(OC)c3C[N+]1([O-])CC2 (stereo unspecified)
inactive: 786-0 > 100 µM | CAKI-1 > 100 µM | CCRF-CEM > 100 µM | HCC 2998 > 100 µM | HCT-116 > 100 µM | HT-29 > 100 µM | MOLT-4 > 100 µM | OVCAR-4 > 100 µM | SF-539 > 100 µM | SNB-19 > 100 µM | SNB-75 > 100 µM | UACC-257 > 100 µM | UO-31 > 100 µM
